Patent publication US12398098B2, “Waterborne crosslinker composition” (priority 2020, dated 2025)
Like-named read-outs stand apart in the source and are kept apart here.

Tests used:
[1] = system: mouse embryonic stem (mES) reporter cell lines
Rtkn [2] = conditions: mouse
Rtkn [3] = assay: ToxTracker genotoxicity assay, Rtkn-GFP reporter
Bscl2 = assay: ToxTracker genotoxicity assay, Bscl2-GFP reporter
[4] = With S9 rat liver extract, at 25% cytotoxicity, 3 h exposure and 24 h recovery
[5] = With S9 rat liver extract, at 50% cytotoxicity, 3 h exposure and 24 h recovery
[6] = Without S9 rat liver extract, at 10% cytotoxicity, 24 h exposure
[7] = Without S9 rat liver extract, at 25% cytotoxicity, 24 h exposure
[8] = Without S9 rat liver extract, at 50% cytotoxicity, 24 h exposure
[9] = With S9 rat liver extract, at 10% cytotoxicity, 3 h exposure and 24 h recovery
[10] = Bscl2 and Rtkn, absence and presence of S9

For `CCC(COC(=O)CCN1CC1C)(COC(=O)CCN1CC1C)COC(=O)CCN1CC1C` (centres unmarked) [Comp. Ex. 1, trimethylolpropane tris(2-methyl aziridinepropionate), reference compound], the “Genotoxicity test result (overall)” value [1] was “genotoxic”.
For `CCCCOCC(CN1CC1C)OC(=O)NCCCCCCn1c(=O)n(CCCCCCNC(=O)OC(COCCCC)CN2CC2C)c(=O)n(CCCCCCNC(=O)OC(COCCCC)CN2CC2C)c1=O` (centres unmarked) [Composition 1], the “Rtkn GFP reporter induction level” value (Rtkn [2]) was 0.9, the “Genotoxicity test result (overall)” value [1] was “non-genotoxic” and the “Rtkn GFP reporter induction level” value (Rtkn [3]; [4]) was 0.8. The “Rtkn GFP reporter induction level” value (Rtkn [3]; [5]) was 0.6, the “Rtkn GFP reporter induction level” value (Rtkn [3]; [6]) was 0.8 and the “Rtkn GFP reporter induction level” value (Rtkn [3]; [7]) was 0.8. The “Rtkn GFP reporter induction level” value (Rtkn [3]; [8]) was 0.6 and the “Bscl 2 GFP reporter induction level” value (Bscl2; [5]) was 0.9.
For `CC(CN1CC1C)OC(=O)NCCCCCCn1c(=O)n(CCCCCCNC(=O)OC(C)CN2CC2C)c(=O)n(CCCCCCNC(=O)OC(C)CN2CC2C)c1=O` (centres unmarked) [Composition 16], the “Genotoxicity test result (overall)” value [1] was “non-genotoxic”, the “Rtkn GFP reporter induction level” value (Rtkn [3]; [9]) was 1.2 and the “Rtkn GFP reporter induction level” value (Rtkn [3]; [4]) was 1.1. For the same molecule, the “Rtkn GFP reporter induction level” value (Rtkn [3]; [5]) was 0.9, the “Rtkn GFP reporter induction level” value (Rtkn [3]; [6]) was 1.2 and the “Rtkn GFP reporter induction level” value (Rtkn [3]; [7]) was 1.2. For the same molecule, the “Rtkn GFP reporter induction level” value (Rtkn [3]; [8]) was 1.4, the “Bscl 2 GFP reporter induction level” value (Bscl2; [9]) was 1.2 and the “Bscl 2 GFP reporter induction level” value (Bscl2; [4]) was 1.3. For the same molecule, the “Bscl 2 GFP reporter induction level” value (Bscl2; [5]) was 1.2, the “Bscl 2 GFP reporter induction level” value (Bscl2; [6]) was 1.2 and the “Bscl 2 GFP reporter induction level” value (Bscl2; [7]) was 1.3. For the same molecule, the “Bscl 2 GFP reporter induction level” value (Bscl2; [8]) was 1.3.
For `CCCCC(CC)COCC(CN1CC1C)OC(=O)NCCCCCCn1c(=O)n(CCCCCCNC(=O)OC(COCC(CC)CCCC)CN2CC2C)c(=O)n(CCCCCCNC(=O)OC(COCC(CC)CCCC)CN2CC2C)c1=O` (centres unmarked) [Composition 23], the “Genotoxicity test result (overall)” value [1, 10] was “non-genotoxic”.
For `CCCCCCCCCC(=O)OCC(CN1CC1C)OC(=O)NCCCCCCn1c(=O)n(CCCCCCNC(=O)OC(COC(=O)CCCCCCCCC)CN2CC2C)c(=O)n(CCCCCCNC(=O)OC(COC(=O)CCCCCCCCC)CN2CC2C)c1=O` (centres unmarked) [Composition 25-2], the “Genotoxicity test result (overall)” value [1, 10] was “non-genotoxic”, the “Rtkn GFP reporter induction level” value (Rtkn [3]; [9]) was 1.1 and the “Rtkn GFP reporter induction level” value (Rtkn [3]; [4]) was 1.1. For the same molecule, the “Rtkn GFP reporter induction level” value (Rtkn [3]; [5]) was 1.2, the “Rtkn GFP reporter induction level” value (Rtkn [3]; [6]) was 1.1 and the “Rtkn GFP reporter induction level” value (Rtkn [3]; [7]) was 1.2. The “Rtkn GFP reporter induction level” value (Rtkn [3]; [8]) was 1.0, the “Bscl 2 GFP reporter induction level” value (Bscl2; [9]) was 1.0 and the “Bscl 2 GFP reporter induction level” value (Bscl2; [4]) was 1.1. The “Bscl 2 GFP reporter induction level” value (Bscl2; [5]) was 1.1, the “Bscl 2 GFP reporter induction level” value (Bscl2; [6]) was 1.1 and the “Bscl 2 GFP reporter induction level” value (Bscl2; [7]) was 1.2. The “Bscl 2 GFP reporter induction level” value (Bscl2; [8]) was 1.0.
With `CCCCOCC(CN1CC1C)OC(=O)NCCCCCC/N=c1\oc(=O)n(CCCCCCNC(=O)OC(COCCCC)CN2CC2C)c(=O)n1CCCCCCNC(=O)OC(COCCCC)CN1CC1C` (centres unmarked) [Composition 27] the “Genotoxicity test result (overall)” value [1, 10] was “non-genotoxic”.
In the case of `CCCCOCC(CN1CC1(C)C)OC(=O)NCCCCCCn1c(=O)n(CCCCCCNC(=O)OC(COCCCC)CN2CC2(C)C)c(=O)n(CCCCCCNC(=O)OC(COCCCC)CN2CC2(C)C)c1=O` (centres unmarked) [Compound. 15], the “Genotoxicity test result (overall)” value [1] is reported as “non-genotoxic”, the “Rtkn GFP reporter induction level” value (Rtkn [3]; [9]) is reported as 1.2 and the “Rtkn GFP reporter induction level” value (Rtkn [3]; [4]) is reported as 1.2. The “Rtkn GFP reporter induction level” value (Rtkn [3]; [5]) was 1.3, the “Rtkn GFP reporter induction level” value (Rtkn [3]; [6]) was 1.2 and the “Rtkn GFP reporter induction level” value (Rtkn [3]; [7]) was 1.2. For the same molecule, the “Rtkn GFP reporter induction level” value (Rtkn [3]; [8]) was 1.2, the “Bscl 2 GFP reporter induction level” value (Bscl2; [9]) was 1.1 and the “Bscl 2 GFP reporter induction level” value (Bscl2; [4]) was 1.1. For the same molecule, the “Bscl 2 GFP reporter induction level” value (Bscl2; [5]) was 1.1, the “Bscl 2 GFP reporter induction level” value (Bscl2; [6]) was 1.2 and the “Bscl 2 GFP reporter induction level” value (Bscl2; [7]) was 1.2. The “Bscl 2 GFP reporter induction level” value (Bscl2; [8]) was 1.1.
